Reference: patent US10759799B2, “Indazole containing macrocycles and therapeutic uses thereof” (Samumed, LLC, priority 2018, dated 2020)
Where two headings read alike, the source gives them in different places.

Tests used:
[1] = DMF
[2] = system: SW480 colon carcinoma cells; assay: Cell viability assay (CellTiter-Glo) in SW480 cells; format: cell-based; settings: Homo sapiens; for EC50: 96 h, SW480 cell viability, four days, CellTiter-Glo
Experimental: Representative compounds were screened using the assay procedure to assess the effect on cell viability as described below.
SW480 colon carcinoma cells were transduced with a lentiviral vector expressing luciferase with a human Sp5 promoter consisting of a sequence of eight TCF/LEF binding sites. SW480 cells stably expressing the Sp5-Luc reporter gene and a hygromycin resistance gene were selected by treatment with 150 μg/mL of hygromycin for 7 days. These stably transduced SW480 cells were expanded in cell culture and used for all further screening activities.
For the Cell Viability Assays, the cells were plated at 2,000 cells/well in 384-well plates with a DMEM medium containing 1% fetal bovine serum, and 1% Penicillin-Streptomycin and incubated for […] at 37° C. and 5% CO2. Eight replicates of DMSO-treated cells served as controls and cells treated with compound were performed in duplicate.
After incubation, 10 μL of CellTiter-Glo (Promega) was added to each well allowed to incubate for approximately 12 minutes. This reagent “results in cell lysis and generation of a luminescent signal proportional to the amount of ATP present. The amount of ATP is directly proportional to the number of cells present in culture, in agreement with previous reports. The CellTiter-Glo Assay generates a “glow-type” luminescent signal, produced by the luciferase reaction (Promega.com)”.

[3] = system: primary human mesenchymal stem cells (hMSCs); assay: Chondrogenesis induction in hMSCs (Rhodamine B staining intensity, EC50); format: cell-based; settings: 6 days, Rhodamine B staining intensity of nodules
Description: Representative compounds were screened using primary human mesenchymal stem cells (hMSCs) to determine their ability to induce chondrogenesis (process by which cartilage is developed).
Primary human mesenchymal stem cells (hMSCs) were purchased from Lonza (Walkersville, Md.) and expanded in Mesenchymal Stem Cell Growth Media (Lonza). Cells between passage 2 and 4 were used for the experiments.
To image chondrogenic nodules, the cells were fixed using 4% formaldehyde (Electron Microscopy Sciences), and stained with 2 μg/mL Rhodamine B (Sigma-Aldrich) and 20 μM Nile Red (Sigma-Aldrich) [Johnson K., et. al, A Stem Cell-Based Approach to Cartilage Repair, Science, (2012), 336(6082). […] Rhodamine B staining intensity of nodules in each well was normalized to the average of 3 DMSO treated wells on the same plate using Excel (Microsoft Inc.). The normalized averages (fold change over DMSO) of 3 replicate wells for each compound concentration were calculated. EC50 values were calculated using non-linear regression curve fitting in Prism 8 (Graphpad Inc.). Due to solubility limitations of some of the compounds, curve fitting was incomplete, and the highest observed activity was extrapolated to the insoluble doses for accurate EC50 determinations.
EC50 values are reported. Further, using TGF-β3 as a positive control, the concentration of representative compounds required to induce equivalent levels of chondrogenesis is reported. In addition, the maximum activity of each compound and the respective dose that each compound reached maximum chondrogenesis activity is reported.

[4] = target: recombinant GSK3β kinase (Homo sapiens (Human), UniProt P49841); assay: GSK3β kinase assay (Ser/Thr 09 peptide Z-lyte, FRET); format: biochemical; settings: 46 μM ATP, one hour at room temperature, read-out: EC50 (μM) (IC50 per method)
Sequence of recombinant GSK3β kinase (P49841 whole entry): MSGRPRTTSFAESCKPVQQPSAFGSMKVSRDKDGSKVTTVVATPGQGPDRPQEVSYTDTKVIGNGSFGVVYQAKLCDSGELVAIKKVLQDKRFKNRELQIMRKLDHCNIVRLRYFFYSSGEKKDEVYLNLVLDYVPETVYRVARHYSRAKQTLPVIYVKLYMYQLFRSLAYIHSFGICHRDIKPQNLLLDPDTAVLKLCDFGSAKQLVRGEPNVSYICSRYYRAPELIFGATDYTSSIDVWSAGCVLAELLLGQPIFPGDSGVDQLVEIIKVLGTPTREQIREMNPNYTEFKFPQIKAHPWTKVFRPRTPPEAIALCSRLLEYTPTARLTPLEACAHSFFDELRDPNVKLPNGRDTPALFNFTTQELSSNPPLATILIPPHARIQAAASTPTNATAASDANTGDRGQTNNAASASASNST
Description: Representative compounds were screened using the assay procedure for GSK3β kinase activity as described below.
The GSK3β kinase assay is run using the Ser/Thr 09 peptide Z-lyte assay kit according to manufacturer's instructions (Life Technologies—a Division of Thermo-Fisher). This is a non-radioactive assay using fluorescence resonance energy transfer (FRET) between coumarin and fluorescein to detect kinase activity which is represented as ratio of coumarin emission/fluorescein emission.
Briefly, recombinant GSK3β kinase, ATP and Ser/Thr peptide 09 are prepared in 1× Kinase buffer to final concentrations of 0.04 μg/mL, 46 μM, and 4 μM respectively. The mixture is allowed to incubate with the representative compounds for one hour at room temperature. All reactions were performed in duplicate. Unphosphorylated (“0% Control”) and phosphorylated (“100% control”) forms of […] serve as control reactions.
(§1) After incubation, diluted Development Buffer is added to the reaction and allowed to further incubate for one hour at room temperature. The plate is read at Ex 400 Em 455 to detect the coumarin signal and Ex 400 Em 520 to measure the signal (EnVision Multilabel Plate Reader, PerkinElmer).
The Emission ratio (Em) is calculated as a ratio of the coumarin (C) emission signal (at 445 nm)/Fluorescein (F) emission signal (at 520 nm). The percent phosphorylation is then calculated using the following formula: [1−((Em ratio×F100%)−C100%)/((C0%−C100%)+(Em ratio×(F100%−F0%)))].
Dose-response curves are generated and inhibitory concentration (IC50) values are calculated using non-linear regression curve fit in the Dotmatics' Studies Software (Bishops Stortford, UK).

[5] = target: recombinant DYRK1A kinase (Homo sapiens (Human), UniProt Q13627); assay: DYRK1A kinase assay (Ser/Thr 18 peptide Z-lyte, FRET); format: biochemical; settings: 30 μM ATP, one hour at room temperature, read-out: EC50 (μM) (IC50 per method)
Description: Representative compounds were screened using the assay procedure for DYRK1A kinase activity as described below.
The DYRK1A kinase assay was run using the Ser/Thr 18 peptide Z-lyte assay kit according to manufacturer's instructions (Life Technologies—a Division of Thermo-Fisher). This is a non-radioactive assay using fluorescence resonance energy transfer (FRET) between coumarin and fluorescein to detect kinase activity which is represented as a ratio of coumarin emission/fluorescein emission.
Briefly, recombinant DYRK1A kinase, ATP and Ser/Thr peptide 18 were prepared in 1× Kinase buffer to final concentrations of 0.19 μg/mL, 30 μM, and 4 μM respectively. The mixture was allowed to incubate with the representative compounds for one hour at room temperature. All reactions were performed in duplicate. Unphosphorylated (“0% Control”) and phosphorylated (“100% control”) forms of Ser/Thr 18 served as control reactions. Additionally, an 11-point dose-response curve of Staurosporine (1 uM top) was run to serve as a positive compound control.
as §1, with “incubation, Development Reagent A was” for “incubation,”, “diluted in” for “diluted”, “Buffer then” for “Buffer is”, “plate was” for “plate is”
The Emission ratio (Em) was calculated as a ratio of the coumarin (C) emission signal (at 445 nm)/Fluorescein (F) emission signal (at 520 nm). The percent phosphorylation was then calculated using the following formula: [1−((Em ratio×F100%)−C100%)/((C0%−C100%)+(Em ratio×(F100%−F0%)))].

[6] = system: Wnt activity (Sp5-Luc reporter, SW480 colon carcinoma cells); assay: Sp5-Luc reporter gene screening assay for Wnt activity in SW480 cells; format: cell-based; settings: Homo sapiens; Sp5-Luc reporter, SW480 cells, 36 to 48 hours
Description: The screening assay for Wnt activity is described as follows. Reporter cell lines can be generated by stably transducing cancer cell lines (e.g., colon cancer) or primary cells (e.g., IEC-6 intestinal cells) with a lentiviral construct that includes a Wnt-responsive promoter driving expression of the firefly luciferase gene.
SW480 colon carcinoma cells were transduced with a lentiviral vector expressing luciferase with a human Sp5 promoter consisting of a sequence of eight TCF/LEF binding sites. SW480 cells stably expressing the Sp5-Luc reporter gene and a hygromycin resistance gene were selected by treatment with 150 μg/mL of hygromycin for 7 days. These stably transduced SW480 cells were expanded in cell culture and used for all further screening activities. […] For Sp5-Luc reporter gene assays, the cells were plated at 4,000 cells/well in 384-well plates with a DMEM medium containing 1% fetal bovine serum, and 1% Penicillin-Streptomycin and incubated for 36 to 48 hours at 37° C. and 5% CO2. Following incubation, 15 μl of BriteLite Plus luminescence reagent (Perkin Elmer) was added to each well of the 384-well assay plates. The plates were placed on an orbital shaker for 2 min and then luminescence was quantified using the Envision (Perkin Elmer) plate reader. Readings were normalized to DMSO only treated cells, and normalized activities were utilized for EC50 calculations using the dose-response log (inhibitor) vs. response-variable slope (four parameters) nonlinear regression feature available in GraphPad Prism 5.0 (or Dotmatics).

[7] = system: primary human fibroblasts derived from IPF patients (LL29 cells); assay: Inhibition of TGF-β1 induced fibrosis (αSMA staining) in LL29 fibroblasts; format: cell-based; settings: Fibroblast, 96 h, LL29 cells, TGF-β1 20 ng/mL, 4 days, % αSMA positive cells
Experimental: Representative compounds were screened using primary human fibroblasts (derived from IPF patients) treated with TGF-β1 to determine their ability to inhibit the fibrotic process.
LL29 cells were plated at 1,500 cells/well in 70 μL/well F12 medium supplemented with 1% Fetal Bovine Serum. […] Wells treated with TGF-β1 and containing DMSO were used as positive control, and cells with only DMSO were negative control. […] Following incubation for 4 days, SYTOX green nucleic acid stain (Life Technologies [Thermo Fisher Scientific]) was added to the wells at a final concentration of 1 μM and incubated at room temperature for 30 min.

EC50 [2] | EC50 [3] | IC50 [4] | IC50 [5] | EC50 [6] | Molecule | other results
– | – | – | – | – | O=C1CCc2cccc(c2)-c2cccc3[nH]c(nc23)-c2nn(C(c3ccccc3)(c3ccccc3)c3ccccc3)c3ccc(cc23)-c2cncc(c2)N1 | ring closure, isolated yield ([1]; from Nc1cncc(-c2ccc3c(c2)c(-c2nc4c(-c5cccc(CCC(=O)O)c5)cccc4[nH]2)nn3C(c2ccccc2)(c2ccccc2)c2ccccc2)c1, amide bond, 18-membered ring, HATU/DIEA/DMAP, 17.5 mM, 70.0 °C): 49.2%
> 10000 nM | 69 nM | 0.494 µM | 0.204 µM | 7660 nM | O=C1CCc2cccc(c2)-c2ccnc3[nH]c(nc23)-c2n[nH]c3ccc(cc23)-c2cncc(c2)N1 [Compound 4, (Z)-2^3H,3^1H-5-aza-2(7,2)-imidazo[4,5-b]pyridina-3 (3,5)-indazola-4(3,5)-pyridina-1(1,3)-benzenacyclooctaphan-6-one] | inhibition at 10 µM ([2]; SW480, read-out: percent inhibition at 10 μM): 49.5%
– | – | – | – | – | c1ccc(C(c2ccccc2)(c2ccccc2)n2nc3c4cc(ccc42)-c2cncc(c2)OCCCc2cccc(c2)-c2cccc4[nH]c-3nc24)cc1 | ring closure, isolated yield ([1]; from Oc1cncc(-c2ccc3c(c2)c(-c2nc4c(-c5cccc(CCCBr)c5)cccc4[nH]2)nn3C(c2ccccc2)(c2ccccc2)c2ccccc2)c1, ether bond, 18-membered ring, K2CO3, 20.0 mM, 80.0 °C): 50.8%
54 nM | 9 nM | 0.062 µM | 0.096 µM | 34 nM | c1cc2cc(c1)-c1cccc3[nH]c(nc13)-c1n[nH]c3ccc(cc13)-c1cncc(n1)NCCO2 [Compound 109] | ring closure, isolated yield ([1]; from NCCOc1cccc(-c2cccc3[nH]c(-c4n[nH]c5ccc(-c6cncc(Cl)n6)cc45)nc23)c1, snar bond, 18-membered ring, DIEA, 19.0 mM, 110.0 °C): 26.4%
35 nM | 3120 nM | 0.014 µM | 0.014 µM | 17 nM | O=C1CCCc2cccc(c2)-c2cccc3[nH]c(nc23)-c2n[nH]c3ccc(cc23)-c2cncc(c2)N1 [Compound 71] | EC50 [7]: 21 nM
– | – | – | – | – | (Z)-5,10-Dimethyl-1^1H,2^1H-5,10-diaza-1(2,4)-imidazo[4,5-c]pyridina-2(3,5)-indazola-3(3,5)-pyridinacyclodecaphane | ring closure, isolated yield ([1]; amine bond, 18-membered ring, KI/DIEA, 42.4 mM, 90.0 °C): 9.7%
– | – | – | – | – | CN1CCCn2cc(nn2)-c2nccc3[nH]c(nc23)-c2n[nH]c3ccc(cc23)-c2cncc(c2)C1 | ring closure, isolated yield ([1]; from CNCc1cncc(-c2ccc3[nH]nc(-c4nc5c(-c6cn(CCCCl)nn6)nccc5[nH]4)c3c2)c1, amine bond, 19-membered ring, DIEA, 16.7 mM, 100.0 °C): 71.9%
